Source: publication PMC4759478, “Novel EGFR inhibitors attenuate cardiac hypertrophy induced by angiotensin II” (Journal of Cellular and Molecular Medicine, 2016)

Key:
[1] = system: c-Src phosphorylation in H9c2 cells; assay: Ang II-induced c-Src phosphorylation in H9c2 cells (Western blot); format: cell-based, rat; conditions: 10 μM pre-treatment 2 hrs, Ang II 1 μM 15 min
Protocol: (§1) Cells or heart tissues (30–50 mg) were lysated. […] Each PVDF membrane was incubated with specific antibodies.

[2] = system: EGFR signalling in H9c2 cells; assay: Ang II-induced EGFR/AKT/ERK phosphorylation in H9c2 cells (Western blot); format: cell-based, rat; conditions: Ang II 1 μM 15 min
Protocol: as §1

[3] = system: heart tissues of Ang II-treated C57BL/6 mice; assay: Heart histopathology, Masson fibrosis staining, RT-qPCR and immunohistochemistry in Ang II-treated mice; format: in vivo, mouse; conditions: Ang II 2 weeks
Protocol: Cardiac hypertrophy was induced in 6-week-old C57BL/6 mice by a […] subcutaneous injection of AngII (0.5 mg/kg/2 days for 2 weeks) in phosphate buffer (pH 7.2), as described previously 18. Mice in vehicle control group and Ang II group received 1% CMC-Na solution alone in the same schedule as compound-treated groups. Animals were killed under sodium pentobarbital anaesthesia. After mice was killed, heart tissues were embedded in 4% paraformaldehyde for pathological analysis and/or snap-frozen in liquid nitrogen for gene and protein expression analysis. In addition, the blood was collected from the right ventricle using a heparin-containing syringe with a needle at the time of death. […] Hearts were fixed in 4% paraformaldehyde and embedded in paraffin. The paraffin sections (5 μm) were stained with haematoxylin and eosin. To estimate the extent of damage, the specimen was observed under a light microscope (×200 amplification; Nikon, Tokyo, Japan). After deparaffinization and rehydration, 5 μm heart sections were treated with 3% H2O2 for 30 min. and with 1% BSA in PBS for 30 min. Slides were incubated overnight at 4°C with primary antibody (1:50) then incubated with secondary antibody (1:100; Santa Cruz Biotech) for 1 hr and DAB (A: B = 1: 20) for 5 min. at room temperature. At last the cell nuclei were stained with haematoxylin for 5 min., the sections were dehydrated and the images were viewed by a light microscope (×200 amplification; Nikon). Tissues were fixed in paraformaldehyde solution and embedded in paraffin. Paraffin sections (5 μm) of the heart tissues were stained with Masson to evaluate the fibrosis content. The stained sections then were viewed by light microscope (×200 amplification; Nikon).

[4] = system: EGFR signalling in H9c2 cells; conditions: 10 μM pre-treatment 2 hrs, EGF 100 ng/ml 15 min, Western blot
Protocol: as §1

[5] = system: AngII-induced cardiac hypertrophy in C57BL/6 mice; assay: Echocardiography and heart weight/bodyweight in AngII-induced cardiac hypertrophy mice; format: in vivo, mouse; conditions: AngII-treated C57BL/6 mice, 20 mg/kg/day for 2 weeks, n = 7
Protocol: Cardiac hypertrophy was induced in 6‐week‐old C57BL/6 mice by a […] subcutaneous injection of AngII (0.5 mg/kg/2 days for 2 weeks) in phosphate buffer (pH 7.2), as described previously 18. Mice in vehicle control group and Ang II group received 1% CMC‐Na solution alone in the same schedule as compound‐treated groups. Animals were killed under sodium pentobarbital anaesthesia. After mice was killed, heart tissues were embedded in 4% paraformaldehyde for pathological analysis and/or snap‐frozen in liquid nitrogen for gene and protein expression analysis. In addition, the blood was collected from the right ventricle using a heparin‐containing syringe with a needle at the time of death.
At the day before the sacrifice, Doppler analysis was performed to ensure that pathologic cardiac hypertrophy was induced. The internal diameter and wall thickness of left ventricle (LV) were assessed by echocardiography 19. Hearts of the killed mice were dissected and weighted to compare heart weight/bodyweight (mg/kg) ratios in mice. Mice was anaesthetized with isoflurane, echocardiography was performed by SONOS 5500 ultrasound (Philips Electronics, Amsterdam, the Netherlands) with a 15‐MHz linear array ultrasound transducer. The LV was assessed in both parasternal long‐axis and short‐axis views at a frame rate of 120 Hz. End‐systole or end‐diastole was defined as the phase in which the smallest or largest area of LV respectively. LV posterior wall (LVPW) and LV internal dimension (LVID) were measured from LV M‐model tracing with a sweep speed of 50 mm/sec. at the mid‐papillary muscle level.

H9c2 cells = assay: EGF-induced hypertrophy of H9c2 cells (Western blot, RT-qPCR, immunofluorescence); format: cell-based, rat; conditions: pre-treatment 2 hrs (AG1478 10 μM; 542/543 1-10 μM), EGF 100 ng/ml 6 hrs (mRNA) or 12 hrs (MyHC)
Protocol: as §1

[6] = system: primary neonatal rat cardiomyocytes; assay: Ang II-stimulated primary neonatal rat cardiomyocytes (Western blot, RT-qPCR); format: cell-based; conditions: 10 μM pre-treatment 2h, Ang II 1 μM 15min
Protocol: Cells were incubated with a DMEM medium that contained 5.5 mmol/L of D-glucose.
Figure S1. Effects of EGFR inhibitos in Ang II-stimulated primary neonatal rat cardiomyocytes. […] The cell lysates were collected and p-EGFR/EGFR (A) and p-AKT/p-ERK/GAPDH (B) were detected by Western Blot analysis. […] The cell lysates were collected and MyHC/GAPDH was detected by Western Blot analysis. […] The mRNA levels of ANP (D), β/α-MyHC (E), and SKA (F) were detected by RT-qPCR assay.

For `CC(C)(C)n1nc(-c2ccc(Cl)cc2)c2c(N)ncnc21` [PP2], the “Ang II-induced phosphorylation of c-Src” value [1] was “almost totally inhibited” and the “Ang II-induced phosphorylation of EGFR” value ([2]; PP2 10 μM pre-treatment 2 hrs) was “almost totally inhibited”.
With `COc1cc2ncnc(Nc3cccc(Cl)c3)c2cc1OC` [AG1478] the “cardiac EGFR signalling pathway activation (p-EGFR, p-ERK, p-AKT immunohistochemical staining)” value ([3]; 20 mg/kg) was “significantly inhibited”, the “Ang II-induced increases in heart expression of hypertrophic genes ANP, BNP, β/α-MyHC, SKA (RT-qPCR)” value ([3]; AG1478 20 mg/kg/day, 542 at both dosages (5 and 20 mg/kg/day)) was “significantly blocked” and the “Ang II-induced heart structural abnormalities (haematoxylin and eosin staining)” value ([3]; daily treatment) was “significantly attenuated”. For the same molecule, the “activation of EGFR and downstream signalling (EGFR, AKT, ERK phosphorylation) induced by EGF” value [4] was “inhibits”, the HR [5] was 345.83 ± 70.87 and the “HW (mg)/BW (g)” value [5] was 5.68 ± 0.62 mg/g. The “LVIDd (diastole left ventricle internal dimension)” value [5] was 2.90 ± 0.26 mm, the “LVIDs (systolic left ventricle internal dimension)” value [5] was 1.57 ± 0.21 mm and the “LVPW (left ventricle posterior wall)” value [5] was 0.88 ± 0.03 mm. For the same molecule, the VS [5] was 0.95 ± 0.02 mm, the “EGF-induced overexpression of pro-hypertrophic genes (MyHC, ANP, BNP, β/α-MyHC, SKA)” value (H9c2 cells) was “significantly inhibited” and the “Ang II-increased phosphorylation of EGFR in primary cardiomyocytes” value [6] was “markedly reversed”. The “activation of EGFR and downstream signalling (EGFR, AKT, ERK phosphorylation) induced by Ang II” value ([2]; AG1478 10 μM, 542/543 1, 2.5, 5 or 10 μM pre-treatment 2 hrs) was “inhibits”.
